Laboratory results reported in article PMC12587390, “Metabolite Identification Data in Drug Discovery, Part 1: Data Generation and Trend Analysis” (Molecular Pharmaceutics, 2025).
One block for each molecule: values may come before it.

Assays:
human hepatocytes [1] = test: Metabolic stability in human hepatocytes (HH CLint); assay type: in vitro ADME; conditions: 37 °C, 2 h
Experimental: Metabolic stability in human hepatocytes (HH CLint) was measured by incubating the cells with the test compound at 37 °C for 2 h. An aliquot of the mixture was taken at typically nine defined time points, and the metabolic reaction was stopped by adding ACN. The samples were centrifuged, and the supernatant was analyzed via LC-MS/MS. Intrinsic clearance (CLint) was calculated from the disappearance rate of the parent compound. ,

human hepatocytes [2] = test: Metabolite identification in human hepatocyte incubations; assay type: in vitro ADME; conditions: 4 μM
Experimental: (§1) Cryopreserved, pooled primary human, dog, and rat hepatocytes were obtained from BioIVT (previously Celsis IVT). L-15 Leibovitz buffer was placed in a water bath to reach 37 °C. Cryopreserved hepatocytes were transferred from a −150 °C freezer on dry ice and immediately immersed in a preheated water bath kept at 37 °C for thawing. When only a small ice crystal could be seen, the content was emptied into a 50 mL falcon tube filled with warm buffer (maximum four vials/falcon tube). The suspension was centrifuged at room temperature for 3 min at 50 g. The supernatant was removed, the pellet was resuspended in a small volume of buffer, and the falcon tube was refilled with buffer, followed by another centrifugation to wash away any remaining storage buffer. Thereafter, the supernatant was removed, and the pellet was dissolved in a small volume of buffer and diluted to a concentration of about 3–5 million cells/mL. After counting the cells using a Casy cell counter, the suspension was diluted to 1 million viable cells/mL and kept at room temperature until use. The viability cutoff was 80%.
(§2) An aliquot of 245 μL of hepatocyte suspension was added to a round-bottomed 96-deep-well plate using a manual multipipette. The deep-well plate was preincubated for 15 min at 37 °C and 13 Hz. Substrate solutions of the assay compounds were prepared by the robot in a 96-well plate as follows: 4 μL of 10 mM DMSO stock solution, followed by the addition of 96 μL of ACN:water (1:1, v:v) and mixing by shaking. 50 μL from each well were transferred to and combined in a new plate, resulting in 100 μL per well and a dilution of 1:1.
(§3) The reaction was started by the addition of 5 μL of 200 μM substrate solution to the preheated hepatocyte suspension, resulting in a final substrate concentration of 4 μM (0.04% DMSO, <0.5% ACN). The incubation was continued at 37 °C and 13 Hz. At each time point (0, 40, and 120 min), a 50 μL sample was taken out and quenched in 200 μL of cold ACN:methanol (1:1, v:v), and the stopped plates were centrifuged for 20 min (set at 4 °C and 4000 g). The supernatant was diluted by taking 50 μL and mixing it with 100 μL of water. Incubations of the positive controls, albendazole and dextromethorphan, were performed in parallel as described above.
(§4) Structural characterization of metabolites and metabolite profiling were performed using the Waters Acquity ultraperformance liquid chromatography (UPLC) system fitted to a Waters High-Resolution Mass Spectrometer (MS) (Xevo G2-S, Synapt G2-Si, or a Synapt XS MS). The Waters MS systems, equipped with an electrospray ionization (ESI) source, were operated in positive-ion sensitivity mode over a mass range m/z 50–1200 and in negative-ion sensitivity mode over a mass range m/z of 50–1200.
(§5) The reversed-phase gradient elution was performed on an Acquity U(H)-PLC BEH C18 column (2.1 × 100 mm, 1.7 μm, Waters) set at 45 °C. The mobile phases consisted of 0.1% FA in water (A) and ACN (B). […] The injection volume was 2 μL. The MS settings were optimized for the respective MS instrument. […] A scan time of 0.1 s was used, and data were acquired in centroid mode. Collision energy was set to “off” for the low-energy function, whereas in the high-energy MSe functions, the collision energies were typically ramped from 15 to 35 V in the trap cell, with constant collision energies of 20 V in their transfer cells. Cone voltage was set to 25 V for both low- and high-energy functions. For dedicated MS/MS, the m/z of the molecular ion was selected in the quadrupole, and the mass range for fragmentation analysis was typically set between 50 and 1200. The collision energies were either the same as those stated above for MSe data generation or optimized for a specific metabolite.

[3] = MetID on in vivo rat plasma samples; parameters: species or system rat (Han Wistar)
Experimental: (§6) The workup procedure could vary somewhat depending on the compound and dose, but the general procedure was as follows: Two volumes of ACN/methanol (1:1, v:v) were added to the plasma samples and vortex-mixed to precipitate the proteins. Thereafter, the samples were centrifuged for 10 min (at 10,000 g and 4 °C), and the supernatants were diluted with one volume of water. The urine samples were diluted with one volume of ACN/methanol (1:1, v:v) and centrifuged for 10 min (at 10,000 g and 4 °C), followed by a 1:1 dilution with water.
as §4
(§7) The reversed-phase gradient elution was performed on an Acquity U(H)-PLC BEH C18 column (2.1 × 100 mm, 1.7 μm, Waters) set at 45 °C. The mobile phases consisted of 0.1% FA in water (A) and ACN (B). […] The injection volume was 2 μL. The MS settings were optimized for the respective MS instrument. […] A scan time of 0.1 s was used, and data were acquired in centroid mode. Collision energy was set to “off” for the low-energy function, whereas in the high-energy MSe functions, the collision energies were typically ramped from 15 to 35 V in the trap cell, with constant collision energies of 20 V in their transfer cells. Cone voltage was set to 25 V for both low- and high-energy functions. For dedicated MS/MS, the m/z of the molecular ion was selected in the quadrupole, and the mass range for fragmentation analysis was typically set between 50 and 1200. The collision energies were either the same as those stated above for MSe data generation or optimized for a specific metabolite. Tune parameters for all MS analyses consisted of a capillary energy of 0.5 kV, sampling cone energy of 40 V, source temperature of 150 °C, desolvation temperature of 550 °C, cone gas flow of 0 L/h, desolvation gas flow of 1200 L/h, and nebulizer pressure of 6.5 bar.
(§8) Metabolite identification was conducted by processing the generated data using the MetaboLynx XS browser (Waters), MassMetaSite and the web interface ONIRO (Mass Analytica). […] Accurate masses of metabolites were determined from the protonated molecules in the positive ESI time-of-flight MS (ESI–TOF–MS) mode and from the deprotonated molecules in the negative ESI–TOF–MS mode. […] For those metabolites where no MS/MS data could be acquired, identification was based on the accurate mass of the molecular ion and the fragmentation seen in the MSe spectrum. Relative amounts of detected metabolites were calculated as % of the total MS area by dividing the MS peak area for the metabolite (or parent compound) by the combined MS peak area for the parent compound and all identified metabolites.

[4] = MetID on in vivo dog samples (plasma, urine); parameters: species or system dog (beagles); conditions: for % of the total MS area, Dog Plasma (Female): sampled at 3 h and 30 min
Experimental: as §6, §4, §7, §8

dog hepatocytes = test: Metabolite identification in dog hepatocyte incubations; assay type: in vitro ADME
Experimental: as §1, §2, §3, §4, §5

rat hepatocytes = test: Metabolite identification in rat hepatocyte incubations; assay type: in vitro ADME; conditions: Cmpd 28 incubated for 120 min, 4 μM
Experimental: as §1, §2
as §3, with “The supernatant was diluted by taking 50 μL and mixing it with 100 μL of water. Incubations of the positive controls, albendazole and dextromethorphan, were performed in parallel as described above.” left out

[5] = after Cmpd 16, semiquantitative
[6] = after Cmpd 16, oral, sampled at 60 min
[7] = dog hepatocytes, incubated for 120 min

SMILES: COc1ccc(-c2nnc(C(=O)N3CC(Oc4ccc(CN(C)C)c(C)c4)C3)o2)cc1 [Cmpd 67, COc1ccc(-c2nnc(C(=O)N3CC(Oc4ccc(CN(C)C)c(C)c4)C3)o2)cc1]
HH CLint (human hepatocytes [1]): 16 μL/min/1E6
Metabolites / metabolic pathways identified (human hepatocytes [2]): N- and O-demethylation are major metabolic pathways

SMILES: O=C(Nc1c[nH]nc1C(F)(F)F)[C@@H]1CCCC[C@H]1C(=O)c1ccc(-c2cc[nH]n2)cc1 [Cmpd 16 M12]
% of the total MS area, Dog Plasma (Female) [4, 5]: 2%
% of the total MS area, Rat Plasma (Female) [3, 6]: 2%

SMILES: O=C(O)[C@@H]1CCCC[C@H]1C(=O)c1ccc(-c2cc[nH]n2)cc1 [Cmpd 16 M10]
% of the total MS area, Dog Plasma (Female) [4, 5]: 1%
% of the total MS area, Rat Plasma (Female) [3, 6]: 1%
% of the total MS area, Rat Plasma (Male) [3, 6]: 1%

SMILES: O=C(O)[C@H]1OC(OC(=O)[C@@H]2CCCC[C@H]2C(=O)c2ccc(-c3cc[nH]n3)cc2)[C@H](O)[C@@H](O)[C@@H]1O (stereo partly shown) [Cmpd 16 M13]
% of the total MS area, Dog Plasma (Female) [4, 5]: 0.5%

SMILES: CN(C(=O)c1ccc(C#N)cc1)C(CN1CC(O)C1)c1ccccc1 (stereo not shown) [Cmpd 55, CN(C(=O)c1ccc(C#N)cc1)[C@H](CN1CC(O)C1)c1ccccc1]
N-oxide, % of the total MS area (dog hepatocytes; [7]): no N-oxidation was seen
Parent, % of the total MS area (dog hepatocytes; [7]): 97%
N-oxide, % of the total MS area ([4]; dog plasma, sampled at 60 min): not observed
Parent, % of the total MS area ([4]; dog plasma, sampled at 60 min): 49%
N-oxide, % of the total MS area ([4]; dog urine, sampled at 7–24 h): not observed
Parent, % of the total MS area ([4]; dog urine, sampled at 7–24 h): 61%

Next, values leading:

% of the total MS area, Rat Plasma (Female) ([3]; after Cmpd 28, sampled at 4 h): 1%
% of the total MS area, Rat Plasma (Male) ([3]; after Cmpd 28, sampled at 4 h): 1%
SMILES: CC(=O)Nc1cn(C)nc1C [Cmpd 28 M12]

% of the total MS area, Dog Plasma (Female) ([4]; after Cmpd 28): 0.5%
% of the total MS area, Rat Plasma (Female) ([3]; after Cmpd 28, sampled at 4 h): <1%
% of the total MS area, Rat Plasma (Male) ([3]; after Cmpd 28, sampled at 4 h): 1%
SMILES: Cc1cc(-c2ccc(C(=O)[C@@H]3CCCC[C@H]3C(=O)Nc3c[nH]nc3C)cc2)n[nH]1 [Cmpd 28 M11]

% of the total MS area, Dog Hepatocytes (Mixed gender) (dog hepatocytes; Cmpd 28 incubated for 120 min, 4 μM): 2%
% of the total MS area, Rat Hepatocytes (Mixed gender) (rat hepatocytes): 3%
% of the total MS area, Dog Plasma (Female) ([4]; after Cmpd 28): 1%
% of the total MS area, Rat Plasma (Female) ([3]; after Cmpd 28, sampled at 4 h): not seen
% of the total MS area, Rat Plasma (Male) ([3]; after Cmpd 28, sampled at 4 h): not seen
SMILES: Cc1nn(C)cc1NC(=O)[C@@H]1CCCC[C@H]1C(=O)c1ccc(-c2cc(CO)[nH]n2)cc1 [Cmpd 28 M4]

% of the total MS area, Rat Plasma (Male) ([3]; after Cmpd 28, sampled at 4 h): 1%
SMILES: O=C(O)[C@@H]1CCCC[C@H]1C(=O)c1ccc(-c2cc(CO)[nH]n2)cc1 [Cmpd 28 M10]
